ChEMBL document CHEMBL4428109, “Structure-activity relationship studies of non-carboxylic acid peroxisome proliferator-activated receptor α/δ (PPARα/δ) dual agonists” (Bioorg Med Chem, 2016)
pEC50: −log10 of the molar value. Active and inactive are the calls of the source. No cut-off for these calls is given here.

Legend:
[1] = target: T1, Peroxisome proliferator-activated receptor alpha (Homo sapiens) (UniProt Q07869); test: Agonist activity at N-terminal Gal4 fused human PPARalpha LBD transfected in HEK293 cells at < 10 uM after 24 hrs by luciferase reporter gene assay; format: cell-based
T1 sequence (whole entry): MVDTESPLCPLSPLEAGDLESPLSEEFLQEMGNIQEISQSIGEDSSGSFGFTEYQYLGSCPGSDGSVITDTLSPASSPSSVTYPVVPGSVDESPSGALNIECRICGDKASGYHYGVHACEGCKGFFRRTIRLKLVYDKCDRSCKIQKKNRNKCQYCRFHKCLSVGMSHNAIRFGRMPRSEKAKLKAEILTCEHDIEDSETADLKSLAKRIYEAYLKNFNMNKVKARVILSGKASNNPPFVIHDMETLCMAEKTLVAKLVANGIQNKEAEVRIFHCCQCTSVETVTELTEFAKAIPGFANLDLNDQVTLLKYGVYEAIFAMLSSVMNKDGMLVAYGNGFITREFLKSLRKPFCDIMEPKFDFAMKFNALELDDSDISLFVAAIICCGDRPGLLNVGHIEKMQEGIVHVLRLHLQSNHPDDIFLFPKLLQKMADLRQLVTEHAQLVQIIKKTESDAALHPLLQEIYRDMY

[2] = target: T2, Peroxisome proliferator-activated receptor delta (Homo sapiens) (UniProt Q03181); test: Agonist activity at N-terminal Gal4 fused human PPARdelta LBD transfected in HEK293 cells at < 10 uM after 24 hrs by luciferase reporter gene assay; format: cell-based
T2 sequence (whole entry): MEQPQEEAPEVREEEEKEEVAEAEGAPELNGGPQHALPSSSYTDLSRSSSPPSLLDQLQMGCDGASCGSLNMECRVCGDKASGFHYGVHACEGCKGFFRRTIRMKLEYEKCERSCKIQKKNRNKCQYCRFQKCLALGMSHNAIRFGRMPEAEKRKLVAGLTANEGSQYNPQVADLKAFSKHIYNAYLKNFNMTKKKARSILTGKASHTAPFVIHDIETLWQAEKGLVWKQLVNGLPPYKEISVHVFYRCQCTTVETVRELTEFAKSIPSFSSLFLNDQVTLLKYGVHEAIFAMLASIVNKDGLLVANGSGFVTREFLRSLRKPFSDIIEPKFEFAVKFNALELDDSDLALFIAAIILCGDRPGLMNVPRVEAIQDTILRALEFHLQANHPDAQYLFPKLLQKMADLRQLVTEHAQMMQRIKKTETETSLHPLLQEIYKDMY

[3] = target: T3, Peroxisome proliferator-activated receptor gamma (Homo sapiens) (UniProt P37231); test: Agonist activity at N-terminal Gal4 fused human PPARgamma LBD transfected in HEK293 cells at < 10 uM after 24 hrs by luciferase reporter gene assay; format: cell-based
T3 sequence (whole entry): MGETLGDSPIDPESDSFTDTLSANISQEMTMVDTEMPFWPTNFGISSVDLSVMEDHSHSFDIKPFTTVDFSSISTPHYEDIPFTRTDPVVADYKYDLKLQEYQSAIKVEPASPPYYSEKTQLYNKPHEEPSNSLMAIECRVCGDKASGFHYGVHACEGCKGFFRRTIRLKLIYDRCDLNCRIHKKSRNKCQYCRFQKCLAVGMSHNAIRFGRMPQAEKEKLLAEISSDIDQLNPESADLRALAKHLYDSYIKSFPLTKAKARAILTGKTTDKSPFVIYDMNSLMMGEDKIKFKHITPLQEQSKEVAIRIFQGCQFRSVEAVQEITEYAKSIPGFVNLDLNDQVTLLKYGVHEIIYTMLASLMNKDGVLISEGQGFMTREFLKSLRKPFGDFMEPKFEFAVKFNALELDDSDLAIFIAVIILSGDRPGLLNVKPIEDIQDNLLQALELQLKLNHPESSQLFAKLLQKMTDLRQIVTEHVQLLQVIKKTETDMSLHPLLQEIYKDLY

[4] = target: T4, Peroxisome proliferator-activated receptor alpha (Homo sapiens, UniProt Q07869); test: Agonist activity at N-terminal Gal4 fused human PPARalpha LBD transfected in HEK293 cells after 24 hrs by luciferase reporter gene assay; format: cell-based
T4 sequence (Q07869 whole entry): T1 sequence (whole entry)

[5] = target: T5, Peroxisome proliferator-activated receptor delta (Homo sapiens, UniProt Q03181); test: Agonist activity at N-terminal Gal4 fused human PPARdelta LBD transfected in HEK293 cells after 24 hrs by luciferase reporter gene assay; format: cell-based
T5 sequence (Q03181 whole entry): T2 sequence (whole entry)

[6] = target: T1, Peroxisome proliferator-activated receptor alpha (Homo sapiens); test: Agonist activity at N-terminal Gal4 fused human PPARalpha LBD transfected in HEK293 cells after 24 hrs by luciferase reporter gene assay relative to GW7647; format: cell-based
[7] = target: T2, Peroxisome proliferator-activated receptor delta (Homo sapiens); test: Agonist activity at N-terminal Gal4 fused human PPARdelta LBD transfected in HEK293 cells after 24 hrs by luciferase reporter gene assay relative to GW501516; format: cell-based
[8] = target: T6, Retinoic acid receptor RXR-alpha (Homo sapiens) (UniProt P19793); test: Agonist activity at RXRalpha (unknown origin) at < 20 uM
T6 sequence (whole entry): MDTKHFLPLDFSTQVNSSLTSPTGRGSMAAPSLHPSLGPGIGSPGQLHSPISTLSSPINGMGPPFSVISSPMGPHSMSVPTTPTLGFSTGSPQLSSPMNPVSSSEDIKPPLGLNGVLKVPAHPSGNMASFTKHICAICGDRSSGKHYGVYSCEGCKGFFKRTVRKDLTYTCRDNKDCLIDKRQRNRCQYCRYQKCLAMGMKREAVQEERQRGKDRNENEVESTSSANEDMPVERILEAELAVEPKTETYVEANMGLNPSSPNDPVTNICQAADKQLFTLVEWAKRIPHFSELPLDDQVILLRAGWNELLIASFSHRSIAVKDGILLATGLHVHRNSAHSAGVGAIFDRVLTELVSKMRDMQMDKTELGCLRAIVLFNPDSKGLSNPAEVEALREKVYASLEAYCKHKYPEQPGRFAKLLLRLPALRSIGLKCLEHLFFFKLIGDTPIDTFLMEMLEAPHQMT

[9] = target: T7, Retinoic acid receptor RXR-beta (Homo sapiens) (UniProt P28702); test: Agonist activity at RXRbeta (unknown origin) at < 20 uM
T7 sequence (whole entry): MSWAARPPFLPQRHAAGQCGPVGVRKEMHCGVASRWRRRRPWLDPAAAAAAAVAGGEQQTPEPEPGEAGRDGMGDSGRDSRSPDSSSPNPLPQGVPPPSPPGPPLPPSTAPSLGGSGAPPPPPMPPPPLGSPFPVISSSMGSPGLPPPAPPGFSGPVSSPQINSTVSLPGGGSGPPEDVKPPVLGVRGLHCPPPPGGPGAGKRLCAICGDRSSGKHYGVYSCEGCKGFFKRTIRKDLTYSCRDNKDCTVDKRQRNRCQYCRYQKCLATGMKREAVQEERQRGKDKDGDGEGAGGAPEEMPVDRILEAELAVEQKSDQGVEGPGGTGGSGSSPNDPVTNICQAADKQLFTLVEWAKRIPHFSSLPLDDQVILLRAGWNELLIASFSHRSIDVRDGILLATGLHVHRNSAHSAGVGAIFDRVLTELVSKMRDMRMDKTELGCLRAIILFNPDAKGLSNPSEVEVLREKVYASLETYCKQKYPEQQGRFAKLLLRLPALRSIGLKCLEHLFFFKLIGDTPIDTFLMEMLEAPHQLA

[10] = target: T8, Retinoic acid receptor RXR-gamma (Homo sapiens) (UniProt P48443); test: Agonist activity at RXRgamma (unknown origin) at < 20 uM
T8 sequence (whole entry): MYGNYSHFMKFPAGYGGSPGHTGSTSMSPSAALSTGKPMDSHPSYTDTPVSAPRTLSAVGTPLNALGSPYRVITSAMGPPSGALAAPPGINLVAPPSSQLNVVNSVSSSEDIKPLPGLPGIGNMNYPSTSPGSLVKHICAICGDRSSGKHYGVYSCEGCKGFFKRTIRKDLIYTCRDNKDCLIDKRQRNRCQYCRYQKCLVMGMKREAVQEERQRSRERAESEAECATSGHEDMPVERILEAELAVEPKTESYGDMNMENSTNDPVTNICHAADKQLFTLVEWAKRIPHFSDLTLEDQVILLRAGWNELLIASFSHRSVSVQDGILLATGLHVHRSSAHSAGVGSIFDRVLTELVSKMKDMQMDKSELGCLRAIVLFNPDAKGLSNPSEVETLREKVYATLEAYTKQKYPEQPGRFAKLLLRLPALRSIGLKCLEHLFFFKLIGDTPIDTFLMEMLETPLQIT

[11] = target: T9, Oxysterols receptor LXR-alpha (Homo sapiens) (UniProt Q13133); test: Agonist activity at LXRalpha (unknown origin) at < 20 uM
T9 sequence (whole entry): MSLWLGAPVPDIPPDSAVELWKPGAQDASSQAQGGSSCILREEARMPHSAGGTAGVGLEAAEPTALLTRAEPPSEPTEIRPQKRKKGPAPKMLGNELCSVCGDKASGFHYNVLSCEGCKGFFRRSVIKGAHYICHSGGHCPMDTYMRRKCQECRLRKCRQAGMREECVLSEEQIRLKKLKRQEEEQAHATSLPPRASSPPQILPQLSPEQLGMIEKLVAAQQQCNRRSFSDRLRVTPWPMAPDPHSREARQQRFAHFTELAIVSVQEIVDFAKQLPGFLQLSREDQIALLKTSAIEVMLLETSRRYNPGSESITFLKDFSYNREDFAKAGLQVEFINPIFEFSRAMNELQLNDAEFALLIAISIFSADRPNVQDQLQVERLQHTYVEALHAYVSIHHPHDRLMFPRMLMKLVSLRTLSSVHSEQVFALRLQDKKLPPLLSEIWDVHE

[12] = target: T10, Oxysterols receptor LXR-beta (Homo sapiens) (UniProt P55055); test: Agonist activity at LXRbeta (unknown origin) at < 20 uM
T10 sequence (whole entry): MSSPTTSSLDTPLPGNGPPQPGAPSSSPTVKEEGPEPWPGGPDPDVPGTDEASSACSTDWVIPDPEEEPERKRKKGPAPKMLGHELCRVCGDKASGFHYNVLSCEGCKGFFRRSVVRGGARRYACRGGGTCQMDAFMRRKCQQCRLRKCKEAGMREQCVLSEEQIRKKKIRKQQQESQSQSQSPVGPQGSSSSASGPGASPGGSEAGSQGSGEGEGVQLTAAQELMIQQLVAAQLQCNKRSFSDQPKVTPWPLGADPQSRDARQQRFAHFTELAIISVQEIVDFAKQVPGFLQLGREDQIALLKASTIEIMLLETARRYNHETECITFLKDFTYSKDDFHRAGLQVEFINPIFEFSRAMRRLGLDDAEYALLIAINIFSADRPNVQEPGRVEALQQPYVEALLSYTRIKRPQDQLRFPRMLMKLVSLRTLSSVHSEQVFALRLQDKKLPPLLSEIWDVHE

[13] = target: T11, Bile acid receptor (Homo sapiens) (UniProt Q96RI1); test: Agonist activity at FXR (unknown origin) at < 20 uM
T11 sequence (whole entry): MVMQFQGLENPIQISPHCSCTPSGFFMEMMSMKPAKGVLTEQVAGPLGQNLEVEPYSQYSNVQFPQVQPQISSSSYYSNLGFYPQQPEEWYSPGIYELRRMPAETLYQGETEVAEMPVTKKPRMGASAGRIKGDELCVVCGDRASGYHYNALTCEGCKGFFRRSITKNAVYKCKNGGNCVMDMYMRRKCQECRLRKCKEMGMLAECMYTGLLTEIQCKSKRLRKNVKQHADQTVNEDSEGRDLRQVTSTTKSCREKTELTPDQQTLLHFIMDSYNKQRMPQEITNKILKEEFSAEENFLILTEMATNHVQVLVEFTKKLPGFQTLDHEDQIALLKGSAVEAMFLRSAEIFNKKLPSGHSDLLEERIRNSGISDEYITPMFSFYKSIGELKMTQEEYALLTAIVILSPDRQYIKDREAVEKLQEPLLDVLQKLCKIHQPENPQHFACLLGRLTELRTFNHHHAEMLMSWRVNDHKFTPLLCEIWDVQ

Row | SMILES | Activity [1] | Activity [2] | Activity [3] | pEC50 [4] | pEC50 [5] | Emax [6] | Emax [7] | also measured
1 | CC(NC(=O)C(F)(F)F)c1nc(-c2ccc(Oc3ccc(O)cc3)cc2)no1 (stereo not given) | inactive | inactive | inactive | – | – | – | – | –
2 | CC(N)c1nc(-c2ccc(Oc3ccc(OCc4ccccc4)cc3)cc2)no1 (stereo not given) | inactive | – | – | – | – | – | – | –
3 | CCC(NC(C)=O)c1nc(-c2ccc(Oc3ccc(OCc4ccccc4)cc3)cc2)no1 (stereo not given) | – | – | inactive | 6.89 | 6.96 | 10 to 40% | 5 to 15% | –
4 | CC(=O)NC(C)c1nc(-c2ccc(Oc3ccc(O)cc3)cc2)no1 (stereo not given) | – | – | – | – | – | – | – | Activity [8]: inactive; Activity [9]: inactive; Activity [10]: inactive; Activity [11]: inactive; Activity [12]: inactive; Activity [13]: inactive
5 | CC(=O)N(C)Cc1nc(-c2ccc(Oc3ccc(OCc4ccccc4)cc3)cc2)no1 | inactive | inactive | inactive | – | – | – | – | –
6 | CC(=O)N[C@@H](C)c1nc(-c2ccc(Oc3ccc(OCc4ccccc4)cc3)cc2)no1 | – | – | – | 7.77 | 7.64 | 10 to 40% | 5 to 15% | –

The next lines start with results.

Row | Activity [1] | Activity [2] | Activity [3] | pEC50 [4] | pEC50 [5] | Emax [6] | Emax [7] | SMILES | also measured
7 | inactive | inactive | inactive | – | – | – | – | COC(=O)NC(C)c1nc(-c2ccc(Oc3ccc(O)cc3)cc2)no1 (stereo not given) | –
8 | inactive | inactive | inactive | – | – | – | – | CC(=O)NCc1nc(-c2ccc(Oc3ccc(OCc4ccccc4)cc3)cc2)no1 | –
9 | – | – | inactive | 7.00 | 6.82 | 10 to 40% | 5 to 15% | CC(NC(=O)C(F)(F)F)c1nc(-c2ccc(Oc3ccc(OCc4ccccc4)cc3)cc2)no1 (stereo not given) | –
10 | – | – | inactive | 7.00 | 6.54 | 10 to 40% | 5 to 15% | COC(=O)NC(C)c1nc(-c2ccc(Oc3ccc(OCc4ccccc4)cc3)cc2)no1 (stereo not given) | –
11 | inactive | inactive | inactive | – | – | – | – | CC(=O)NC(C)(C)c1nc(-c2ccc(Oc3ccc(OCc4ccccc4)cc3)cc2)no1 | –
12 | inactive | inactive | – | – | – | 10 to 40% | – | CC(=O)N[C@H](C)c1nc(-c2ccc(Oc3ccc(OCc4ccccc4)cc3)cc2)no1 | –
13 | inactive | – | – | – | – | – | – | CC(NC(=O)OC(C)(C)C)c1nc(-c2ccc(Oc3ccc(OCc4ccccc4)cc3)cc2)no1 (stereo not given) | –
